According to the kinase profiling compilation of Christmann-Franck et al. (2016):
Several values for one entry are separate records, joined by “and”; a condition that tells them apart may be missing. Identical values can stand only once.

What was measured:
Experiment in all cases: KINOMEscan competition binding
Conditions in all cases: compound 10.0 µM
TEC (human) = TEC (human) (UniProt P42680)
MKNK1 (human) = MKNK1 (human) (UniProt Q9BUB5)
HCK (human) = HCK (human) (UniProt P08631)
MAP4K2 (human) = MAP4K2 (human) (UniProt Q12851)
[1] = system: RET (human), P07949 [V804L]
PRKD3 (human) = PRKD3 (human) (UniProt O94806)
PDGFRA (human) = PDGFRA (human) (UniProt P16234)
STK38L (human) = STK38L (human) (UniProt Q9Y2H1)
MAPK3 (human) = MAPK3 (human) (UniProt P27361)
CAMK1G (human) = CAMK1G (human) (UniProt Q96NX5)
CPK1 (P.falciparum) = system: CPK1 (P.falciparum)
MAP3K4 (human) = MAP3K4 (human) (UniProt Q9Y6R4)
MAPK12 (human) = MAPK12 (human) (UniProt P53778)
MAPK1 (human) = MAPK1 (human) (UniProt P28482)
CDKL1 (human) = CDKL1 (human) (UniProt Q00532)
TEK (human) = TEK (human) (UniProt Q02763)
CAMK2G (human) = CAMK2G (human) (UniProt Q13555)
IGF1R (human) = IGF1R (human) (UniProt P08069)
INSRR (human) = INSRR (human) (UniProt P14616)
CLK2 (human) = CLK2 (human) (UniProt P49760)
PLK1 (human) = PLK1 (human) (UniProt P53350)
CDKL5 (human) = CDKL5 (human) (UniProt O76039)
TGFBR2 (human) = TGFBR2 (human) (UniProt P37173)
MAPK6 (human) = MAPK6 (human) (UniProt Q16659)
RPS6KA4 KD2 (human) = RPS6KA4 KD2 (human) (UniProt O75676)
MAPK10 (human) = MAPK10 (human) (UniProt P53779)
MYO3B (human) = MYO3B (human) (UniProt Q8WXR4)
BRSK2 (human) = BRSK2 (human) (UniProt Q8IWQ3)
MAP4K4 (human) = MAP4K4 (human) (UniProt O95819)
CDK16 (human) = CDK16 (human) (UniProt Q00536)
BMPR1B (human) = BMPR1B (human) (UniProt O00238)
CSNK1G2 (human) = CSNK1G2 (human) (UniProt P78368)
PRKCI (human) = PRKCI (human) (UniProt P41743)
TAOK3 (human) = TAOK3 (human) (UniProt Q9H2K8)
LCK (human) = LCK (human) (UniProt P06239)
STK39 (human) = STK39 (human) (UniProt Q9UEW8)
CHEK2 (human) = CHEK2 (human) (UniProt O96017)
DDR1 (human) = DDR1 (human) (UniProt Q08345)
CDC42BPA (human) = CDC42BPA (human) (UniProt Q5VT25)
STK35 (human) = STK35 (human) (UniProt Q8TDR2)

Chain of MAP4K4 (human) (O95819 whole entry, looked up): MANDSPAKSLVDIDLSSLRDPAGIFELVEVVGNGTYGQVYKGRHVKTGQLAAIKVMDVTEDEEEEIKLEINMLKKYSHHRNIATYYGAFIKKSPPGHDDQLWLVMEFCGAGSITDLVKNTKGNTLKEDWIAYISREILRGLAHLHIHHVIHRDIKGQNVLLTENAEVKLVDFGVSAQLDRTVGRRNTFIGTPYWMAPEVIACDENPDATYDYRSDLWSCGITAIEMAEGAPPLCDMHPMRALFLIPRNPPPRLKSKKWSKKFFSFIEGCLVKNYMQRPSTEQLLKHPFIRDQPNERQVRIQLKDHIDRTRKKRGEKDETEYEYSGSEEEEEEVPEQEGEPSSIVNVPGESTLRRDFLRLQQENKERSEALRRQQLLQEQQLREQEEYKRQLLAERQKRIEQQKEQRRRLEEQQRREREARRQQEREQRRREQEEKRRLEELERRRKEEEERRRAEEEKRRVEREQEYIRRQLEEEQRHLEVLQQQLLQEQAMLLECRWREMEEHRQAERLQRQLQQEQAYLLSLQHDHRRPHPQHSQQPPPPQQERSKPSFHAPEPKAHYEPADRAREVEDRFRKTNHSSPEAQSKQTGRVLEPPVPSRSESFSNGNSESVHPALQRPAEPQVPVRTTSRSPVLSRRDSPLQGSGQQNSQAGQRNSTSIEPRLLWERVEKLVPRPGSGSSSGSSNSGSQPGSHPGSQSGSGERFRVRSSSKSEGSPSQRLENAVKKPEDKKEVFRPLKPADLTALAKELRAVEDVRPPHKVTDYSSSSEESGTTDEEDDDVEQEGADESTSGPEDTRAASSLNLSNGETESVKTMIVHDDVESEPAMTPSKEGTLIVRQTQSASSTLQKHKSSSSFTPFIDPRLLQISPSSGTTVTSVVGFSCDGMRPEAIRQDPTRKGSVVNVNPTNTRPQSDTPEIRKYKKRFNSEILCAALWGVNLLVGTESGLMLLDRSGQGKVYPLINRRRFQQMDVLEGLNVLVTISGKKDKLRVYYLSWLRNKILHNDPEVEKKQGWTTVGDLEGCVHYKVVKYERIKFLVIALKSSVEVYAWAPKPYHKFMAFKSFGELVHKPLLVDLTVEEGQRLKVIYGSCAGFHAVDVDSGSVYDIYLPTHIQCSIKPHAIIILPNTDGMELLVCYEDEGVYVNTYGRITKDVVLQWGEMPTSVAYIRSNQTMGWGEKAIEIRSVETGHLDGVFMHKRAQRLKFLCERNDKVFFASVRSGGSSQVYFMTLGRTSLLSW
Chain of TGFBR2 (human) (P37173 whole entry, looked up): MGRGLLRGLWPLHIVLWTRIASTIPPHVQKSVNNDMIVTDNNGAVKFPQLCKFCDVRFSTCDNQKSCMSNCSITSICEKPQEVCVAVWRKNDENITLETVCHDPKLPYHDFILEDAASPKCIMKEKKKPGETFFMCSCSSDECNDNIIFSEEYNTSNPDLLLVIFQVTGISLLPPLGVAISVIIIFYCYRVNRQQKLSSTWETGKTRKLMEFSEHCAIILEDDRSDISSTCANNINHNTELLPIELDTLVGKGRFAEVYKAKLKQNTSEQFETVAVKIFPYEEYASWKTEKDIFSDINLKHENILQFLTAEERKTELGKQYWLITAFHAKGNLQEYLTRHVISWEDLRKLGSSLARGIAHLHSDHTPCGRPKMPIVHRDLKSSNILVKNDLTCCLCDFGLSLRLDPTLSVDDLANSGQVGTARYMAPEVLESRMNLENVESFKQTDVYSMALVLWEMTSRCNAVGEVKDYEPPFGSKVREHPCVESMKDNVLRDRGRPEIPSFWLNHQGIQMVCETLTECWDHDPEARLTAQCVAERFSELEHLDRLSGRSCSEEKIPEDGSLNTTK
Chain of PDGFRA (human) (P16234 whole entry, looked up): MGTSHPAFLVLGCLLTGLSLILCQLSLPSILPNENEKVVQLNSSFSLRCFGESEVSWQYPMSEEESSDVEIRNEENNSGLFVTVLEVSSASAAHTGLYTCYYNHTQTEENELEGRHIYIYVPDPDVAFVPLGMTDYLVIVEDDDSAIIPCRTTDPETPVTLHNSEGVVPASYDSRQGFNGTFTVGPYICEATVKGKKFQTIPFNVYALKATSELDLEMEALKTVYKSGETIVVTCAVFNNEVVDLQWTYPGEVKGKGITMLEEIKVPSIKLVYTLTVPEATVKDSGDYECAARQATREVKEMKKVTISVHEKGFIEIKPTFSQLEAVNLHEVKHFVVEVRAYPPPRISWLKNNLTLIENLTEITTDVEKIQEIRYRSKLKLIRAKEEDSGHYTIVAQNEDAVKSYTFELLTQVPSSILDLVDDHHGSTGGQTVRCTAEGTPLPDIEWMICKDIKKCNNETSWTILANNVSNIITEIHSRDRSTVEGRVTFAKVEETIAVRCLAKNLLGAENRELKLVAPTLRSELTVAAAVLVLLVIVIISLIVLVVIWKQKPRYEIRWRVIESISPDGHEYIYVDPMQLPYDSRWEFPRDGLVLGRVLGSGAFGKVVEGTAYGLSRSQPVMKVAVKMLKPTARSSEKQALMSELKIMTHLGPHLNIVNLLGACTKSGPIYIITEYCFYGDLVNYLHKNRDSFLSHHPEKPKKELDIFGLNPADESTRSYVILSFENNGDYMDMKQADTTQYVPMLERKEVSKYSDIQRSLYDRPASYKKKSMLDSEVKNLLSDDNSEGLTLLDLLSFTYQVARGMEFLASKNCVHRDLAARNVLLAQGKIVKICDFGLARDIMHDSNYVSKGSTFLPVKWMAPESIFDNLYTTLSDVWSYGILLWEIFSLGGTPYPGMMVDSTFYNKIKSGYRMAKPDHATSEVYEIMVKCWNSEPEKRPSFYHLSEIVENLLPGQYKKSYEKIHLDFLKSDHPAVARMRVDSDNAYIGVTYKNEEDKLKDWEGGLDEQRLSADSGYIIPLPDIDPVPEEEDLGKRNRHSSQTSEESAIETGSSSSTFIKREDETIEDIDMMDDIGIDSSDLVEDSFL
Chain of MYO3B (human) (Q8WXR4 whole entry, looked up): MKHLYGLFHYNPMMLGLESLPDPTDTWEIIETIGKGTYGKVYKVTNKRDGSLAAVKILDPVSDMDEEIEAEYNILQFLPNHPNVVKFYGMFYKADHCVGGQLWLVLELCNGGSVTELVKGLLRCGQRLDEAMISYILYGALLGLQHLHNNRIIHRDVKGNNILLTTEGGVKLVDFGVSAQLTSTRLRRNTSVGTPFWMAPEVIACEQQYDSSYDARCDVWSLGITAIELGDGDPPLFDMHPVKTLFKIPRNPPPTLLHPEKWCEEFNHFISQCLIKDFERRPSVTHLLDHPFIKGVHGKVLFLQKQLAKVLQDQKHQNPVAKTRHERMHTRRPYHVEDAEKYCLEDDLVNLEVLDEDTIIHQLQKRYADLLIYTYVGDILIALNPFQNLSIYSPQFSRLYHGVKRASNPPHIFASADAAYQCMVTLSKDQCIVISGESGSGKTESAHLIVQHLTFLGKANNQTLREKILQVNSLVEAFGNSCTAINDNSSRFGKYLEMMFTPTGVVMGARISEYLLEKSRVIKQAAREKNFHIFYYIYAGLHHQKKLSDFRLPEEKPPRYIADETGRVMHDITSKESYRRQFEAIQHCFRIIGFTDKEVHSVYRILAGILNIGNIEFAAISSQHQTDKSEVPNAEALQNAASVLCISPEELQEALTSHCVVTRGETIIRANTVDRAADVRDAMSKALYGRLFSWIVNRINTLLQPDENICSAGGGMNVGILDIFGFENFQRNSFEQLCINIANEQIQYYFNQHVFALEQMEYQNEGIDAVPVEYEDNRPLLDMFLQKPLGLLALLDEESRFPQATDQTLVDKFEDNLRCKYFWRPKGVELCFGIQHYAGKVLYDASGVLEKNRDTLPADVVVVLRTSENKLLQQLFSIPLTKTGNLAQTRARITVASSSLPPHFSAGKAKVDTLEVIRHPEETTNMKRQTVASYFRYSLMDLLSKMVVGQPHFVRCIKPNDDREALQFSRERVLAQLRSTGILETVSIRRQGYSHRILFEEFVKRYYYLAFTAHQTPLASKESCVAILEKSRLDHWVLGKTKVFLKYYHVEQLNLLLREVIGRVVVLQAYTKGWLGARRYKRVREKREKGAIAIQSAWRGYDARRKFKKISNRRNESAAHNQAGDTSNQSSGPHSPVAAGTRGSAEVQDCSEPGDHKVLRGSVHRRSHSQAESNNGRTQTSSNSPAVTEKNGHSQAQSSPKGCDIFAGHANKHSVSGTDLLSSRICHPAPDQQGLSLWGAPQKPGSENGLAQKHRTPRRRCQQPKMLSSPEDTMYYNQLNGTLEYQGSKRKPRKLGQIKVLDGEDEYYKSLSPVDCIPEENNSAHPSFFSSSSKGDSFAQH
Chain of RPS6KA4 KD2 (human) (O75676 whole entry, looked up): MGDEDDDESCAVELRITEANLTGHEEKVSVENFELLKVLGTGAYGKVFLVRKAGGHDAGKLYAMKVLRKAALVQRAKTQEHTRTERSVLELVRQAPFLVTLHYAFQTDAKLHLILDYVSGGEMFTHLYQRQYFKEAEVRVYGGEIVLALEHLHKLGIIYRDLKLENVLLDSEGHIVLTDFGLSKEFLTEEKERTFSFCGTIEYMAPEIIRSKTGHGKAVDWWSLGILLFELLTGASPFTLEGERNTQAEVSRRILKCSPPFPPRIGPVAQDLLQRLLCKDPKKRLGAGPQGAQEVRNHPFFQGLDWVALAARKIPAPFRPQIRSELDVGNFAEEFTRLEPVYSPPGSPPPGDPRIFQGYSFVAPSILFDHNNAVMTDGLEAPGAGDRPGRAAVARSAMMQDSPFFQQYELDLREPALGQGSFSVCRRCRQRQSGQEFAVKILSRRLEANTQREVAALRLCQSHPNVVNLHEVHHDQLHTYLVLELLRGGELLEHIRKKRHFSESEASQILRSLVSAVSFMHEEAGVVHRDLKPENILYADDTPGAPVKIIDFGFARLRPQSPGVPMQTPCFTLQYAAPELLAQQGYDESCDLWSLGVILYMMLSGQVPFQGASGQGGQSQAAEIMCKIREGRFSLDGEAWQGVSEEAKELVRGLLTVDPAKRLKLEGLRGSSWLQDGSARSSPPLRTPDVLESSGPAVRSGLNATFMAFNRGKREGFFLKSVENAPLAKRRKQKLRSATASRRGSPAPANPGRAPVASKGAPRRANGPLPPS

Structure (SMILES)	kinase still bound, per cent of control (TEC (human)) [%]	kinase still bound, per cent of control (MKNK1 (human)) [%]	kinase still bound, per cent of control (HCK (human)) [%]	kinase still bound, per cent of control (MAP4K2 (human)) [%]	kinase still bound, per cent of control [1] [%]	kinase still bound, per cent of control (PRKD3 (human)) [%]	kinase still bound, per cent of control (PDGFRA (human)) [%]	kinase still bound, per cent of control (STK38L (human)) [%]	kinase still bound, per cent of control (MAPK3 (human)) [%]	kinase still bound, per cent of control (CAMK1G (human)) [%]	kinase still bound, per cent of control (CPK1 (P.falciparum)) [%]	kinase still bound, per cent of control (MAP3K4 (human)) [%]	kinase still bound, per cent of control (MAPK12 (human)) [%]	kinase still bound, per cent of control (MAPK1 (human)) [%]	kinase still bound, per cent of control (CDKL1 (human)) [%]	kinase still bound, per cent of control (TEK (human)) [%]	kinase still bound, per cent of control (CAMK2G (human)) [%]	kinase still bound, per cent of control (IGF1R (human)) [%]	kinase still bound, per cent of control (INSRR (human)) [%]	kinase still bound, per cent of control (CLK2 (human)) [%]	also measured
O=c1[nH]c2ccccc2n1C1CCN(Cc2ccc(-c3nc4cc5[nH]cnc5cc4nc3-c3ccccc3)cc2)CC1	100	77	90	71	85	100	83	82	100	90	40	78	98	100	84	85	100	100	100	90	kinase still bound, per cent of control (PLK1 (human)): 93%; kinase still bound, per cent of control (CDKL5 (human)): 86%; kinase still bound, per cent of control (TGFBR2 (human)): 100%; kinase still bound, per cent of control (MAPK6 (human)): 100%; kinase still bound, per cent of control (RPS6KA4 KD2 (human)): 82%; kinase still bound, per cent of control (MAPK10 (human)): 71%; kinase still bound, per cent of control (MYO3B (human)): 100%; kinase still bound, per cent of control (BRSK2 (human)): 88%; kinase still bound, per cent of control (MAP4K4 (human)): 80% and 100%; kinase still bound, per cent of control (CDK16 (human)): 97%; kinase still bound, per cent of control (BMPR1B (human)): 88%; kinase still bound, per cent of control (CSNK1G2 (human)): 59%; kinase still bound, per cent of control (PRKCI (human)): 79%; kinase still bound, per cent of control (TAOK3 (human)): 84%; kinase still bound, per cent of control (LCK (human)): 72%; kinase still bound, per cent of control (STK39 (human)): 100%; kinase still bound, per cent of control (CHEK2 (human)): 100%; kinase still bound, per cent of control (DDR1 (human)): 86%; kinase still bound, per cent of control (CDC42BPA (human)): 85%; kinase still bound, per cent of control (STK35 (human)): 100%
CNC(=O)Nc1ccc(-c2nc(N3CC4CCC(C3)O4)c3cnn(C4CCC5(CC4)OCCO5)c3n2)cc1	84	100	100	100	85	100	80	100	97	100	86	86	54	87	84	100	100	93	100	98	kinase still bound, per cent of control (PLK1 (human)): 77%; kinase still bound, per cent of control (CDKL5 (human)): 79%; kinase still bound, per cent of control (TGFBR2 (human)): 100%; kinase still bound, per cent of control (MAPK6 (human)): 85%; kinase still bound, per cent of control (RPS6KA4 KD2 (human)): 100%; kinase still bound, per cent of control (MAPK10 (human)): 86%; kinase still bound, per cent of control (MYO3B (human)): 91%; kinase still bound, per cent of control (BRSK2 (human)): 100%; kinase still bound, per cent of control (MAP4K4 (human)): 85%; kinase still bound, per cent of control (CDK16 (human)): 100%; kinase still bound, per cent of control (BMPR1B (human)): 83%; kinase still bound, per cent of control (CSNK1G2 (human)): 95%; kinase still bound, per cent of control (PRKCI (human)): 67%; kinase still bound, per cent of control (TAOK3 (human)): 90%; kinase still bound, per cent of control (LCK (human)): 100%; kinase still bound, per cent of control (STK39 (human)): 100%; kinase still bound, per cent of control (CHEK2 (human)): 84%; kinase still bound, per cent of control (DDR1 (human)): 66%; kinase still bound, per cent of control (CDC42BPA (human)): 100%; kinase still bound, per cent of control (STK35 (human)): 95%
